Species: Rattus norvegicus
Experiment: DrugMatrix - Regimen: Daily Repeat
Format: toxicity, organism-based, Sprague-Dawley
Design: regimen Daily Repeat, gender Male, age 6-8 weeks
Settings: in vivo, iv, vehicle 100 % SALINE; for ABSOLUTE BASOPHIL / ABSOLUTE EOSINOPHIL / ABSOLUTE LYMPHOCYTE / ABSOLUTE MONOCYTE / ABSOLUTE SEGMENTED NEUTROPHIL / BASOPHIL / EOSINOPHIL / ERYTHROCYTE COUNT / HEMATOCRIT / HEMOGLOBIN / LEUKOCYTE COUNT / LYMPHOCYTE / MEAN CORPUSCULAR HEMOGLOBIN / MEAN CORPUSCULAR HEMOGLOBIN CONCENTRATION / MEAN CORPUSCULAR VOLUME / MONOCYTE / NEUTROPHIL / NUCLEATED RED BLOOD CELLS / PLATELET COUNT: tissue Blood; for ALANINE AMINOTRANSFERASE / ALBUMIN / ALKALINE PHOSPHATASE / ASPARTATE AMINOTRANSFERASE / BLOOD UREA NITROGEN / CARBON DIOXIDE / CHLORIDE / CHOLESTEROL / CREATINE PHOSPHOKINASE / CREATININE / GLUCOSE / LACTATE DEHYDROGENASE / LIPASE / PHOSPHORUS / POTASSIUM / SODIUM / TOTAL BILIRUBIN / TOTAL PROTEIN / URIC ACID: tissue Plasma
[1] = 0 mg/kg, 72 h, dose level Control, time 3 day
[2] = 0 mg/kg, 120 h, dose level Control, time 5 day
[3] = 2 mg/kg, 72 h, dose level Low, time 3 day

Compound: Cc1ccc(N(CC2=NCCN2)c2cccc(O)c2)cc1 [PHENTOLAMINE]
- ABSOLUTE BASOPHIL [1]: 0 CELLS/uL
- ABSOLUTE EOSINOPHIL [1]: 53.17 CELLS/uL
- ABSOLUTE LYMPHOCYTE [1]: 13731.5 CELLS/uL
- ABSOLUTE MONOCYTE [1]: 186.17 CELLS/uL
- ABSOLUTE SEGMENTED NEUTROPHIL [1]: 1645.83 CELLS/uL
- BASOPHIL [1]: 0%
- EOSINOPHIL [1]: 0.33%
- ERYTHROCYTE COUNT [1]: 5.57 x10E6/uL
- HEMATOCRIT [1]: 36.33%
- HEMOGLOBIN [1]: 13.47 G/DL
- LEUKOCYTE COUNT [1]: 15.62 x10E3/uL
- LYMPHOCYTE [1]: 88.5%
- MEAN CORPUSCULAR HEMOGLOBIN [1]: 24.22 pg
- MEAN CORPUSCULAR HEMOGLOBIN CONCENTRATION [1]: 37.1 G/DL
- MEAN CORPUSCULAR VOLUME [1]: 65.35 fL
- MONOCYTE [1]: 1.17%
- NEUTROPHIL [1]: 10%
- NUCLEATED RED BLOOD CELLS [1]: 0.17 /100WBC
- PLATELET COUNT [1]: 1295.5 x10E3/uL
- ALANINE AMINOTRANSFERASE [1]: 46.83 u/L
- ALBUMIN [1]: 4.37 G/DL
- ALKALINE PHOSPHATASE [1]: 414.33 u/L
- ASPARTATE AMINOTRANSFERASE [1]: 72.5 u/L
- BLOOD UREA NITROGEN [1]: 17 mg/dL
- CARBON DIOXIDE [1]: 23.5 mmol/L
- CHLORIDE [1]: 102 MEQ/L
- CHOLESTEROL [1]: 80.33 mg/dL
- CREATINE PHOSPHOKINASE [1]: 207.83 u/L
- CREATININE [1]: 0.22 mg/dL
- GLUCOSE [1]: 172.17 mg/dL
- LACTATE DEHYDROGENASE [1]: 131 u/L
- LIPASE [1]: 10.33 u/L
- PHOSPHORUS [1]: 11.75 mg/dL
- POTASSIUM [1]: 6.83 MEQ/L
- SODIUM [1]: 145.28 MEQ/L
- TOTAL BILIRUBIN [1]: 0.22 mg/dL
- TOTAL PROTEIN [1]: 6.22 G/DL
- URIC ACID [1]: 1.9 mg/dL
- ABSOLUTE BASOPHIL [2]: 0 CELLS/uL
- ABSOLUTE EOSINOPHIL [2]: 33 CELLS/uL
- ABSOLUTE LYMPHOCYTE [2]: 12184 CELLS/uL
- ABSOLUTE MONOCYTE [2]: 108 CELLS/uL
- ABSOLUTE SEGMENTED NEUTROPHIL [2]: 958.33 CELLS/uL
- BASOPHIL [2]: 0%
- EOSINOPHIL [2]: 0.17%
- ERYTHROCYTE COUNT [2]: 5.9 x10E6/uL
- HEMATOCRIT [2]: 36.58%
- HEMOGLOBIN [2]: 13.33 G/DL
- LEUKOCYTE COUNT [2]: 13.28 x10E3/uL
- LYMPHOCYTE [2]: 91.17%
- MEAN CORPUSCULAR HEMOGLOBIN [2]: 22.67 pg
- MEAN CORPUSCULAR HEMOGLOBIN CONCENTRATION [2]: 36.47 G/DL
- MEAN CORPUSCULAR VOLUME [2]: 62.13 fL
- MONOCYTE [2]: 0.83%
- NEUTROPHIL [2]: 7.83%
- NUCLEATED RED BLOOD CELLS [2]: 0.33 /100WBC
- PLATELET COUNT [2]: 1475.33 x10E3/uL
- ALANINE AMINOTRANSFERASE [2]: 47 u/L
- ALBUMIN [2]: 4.35 G/DL
- ALKALINE PHOSPHATASE [2]: 368.33 u/L
- ASPARTATE AMINOTRANSFERASE [2]: 90.83 u/L
- BLOOD UREA NITROGEN [2]: 15.5 mg/dL
- CARBON DIOXIDE [2]: 26.5 mmol/L
- CHLORIDE [2]: 103.33 MEQ/L
- CHOLESTEROL [2]: 71.83 mg/dL
- CREATINE PHOSPHOKINASE [2]: 585.33 u/L
- CREATININE [2]: 0.19 mg/dL
- GLUCOSE [2]: 171.17 mg/dL
- LACTATE DEHYDROGENASE [2]: 388.83 u/L
- LIPASE [2]: 10.83 u/L
- PHOSPHORUS [2]: 11.75 mg/dL
- POTASSIUM [2]: 6.21 MEQ/L
- SODIUM [2]: 143.7 MEQ/L
- TOTAL BILIRUBIN [2]: 0.17 mg/dL
- TOTAL PROTEIN [2]: 6.17 G/DL
- URIC ACID [2]: 1.98 mg/dL
- ABSOLUTE BASOPHIL [3]: 0 CELLS/uL
- ABSOLUTE EOSINOPHIL [3]: 44.67 CELLS/uL
- ABSOLUTE LYMPHOCYTE [3]: 11097.67 CELLS/uL
- ABSOLUTE MONOCYTE [3]: 122.33 CELLS/uL
- ABSOLUTE SEGMENTED NEUTROPHIL [3]: 968.67 CELLS/uL
- BASOPHIL [3]: 0%
- EOSINOPHIL [3]: 0.33%
- ERYTHROCYTE COUNT [3]: 5.48 x10E6/uL
- HEMATOCRIT [3]: 35.63%
- HEMOGLOBIN [3]: 13.4 G/DL
- LEUKOCYTE COUNT [3]: 12.23 x10E3/uL
- LYMPHOCYTE [3]: 90.67%
- MEAN CORPUSCULAR HEMOGLOBIN [3]: 24.5 pg
- MEAN CORPUSCULAR HEMOGLOBIN CONCENTRATION [3]: 37.6 G/DL
- MEAN CORPUSCULAR VOLUME [3]: 65.03 fL
- MONOCYTE [3]: 1%
- NEUTROPHIL [3]: 8%
- NUCLEATED RED BLOOD CELLS [3]: 0 /100WBC
- PLATELET COUNT [3]: 1379.67 x10E3/uL
- ALANINE AMINOTRANSFERASE [3]: 31.67 u/L
- ALBUMIN [3]: 4.47 G/DL
- ALKALINE PHOSPHATASE [3]: 406 u/L
- ASPARTATE AMINOTRANSFERASE [3]: 74 u/L
- BLOOD UREA NITROGEN [3]: 18.67 mg/dL
- CARBON DIOXIDE [3]: 19.67 mmol/L
- CHLORIDE [3]: 104.67 MEQ/L
- CHOLESTEROL [3]: 76.67 mg/dL
- CREATINE PHOSPHOKINASE [3]: 368.67 u/L
- CREATININE [3]: 0.22 mg/dL
- GLUCOSE [3]: 166 mg/dL
- LACTATE DEHYDROGENASE [3]: 137.33 u/L
- LIPASE [3]: 10.33 u/L
- PHOSPHORUS [3]: 12.63 mg/dL
- POTASSIUM [3]: 6.72 MEQ/L
- SODIUM [3]: 145.53 MEQ/L
- TOTAL BILIRUBIN [3]: 0.13 mg/dL
- TOTAL PROTEIN [3]: 6.27 G/DL
